This is an account of results in patent US10689377B2 (Mirati Therapeutics, Inc., priority 2017, dated 2020).

Where a name gives a salt, the structure may show the parent alone.

The target of the assay is KRas G12C (Homo sapiens, UniProt P01116, G12C). Briefly: Cellular inhibition of KRas G12C measured by Phospho-ERK in NCI-H358 cells. It counts as cell-based. As to conditions: pERK(Thr202/Tyr204) normalized with GAPDH, NCI-H358 cells, 3 hours; read-out: IC50. A digest of the protocol: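 Ratio of phospho-ERK(Thr202/Tyr204) to GAPDH, read by near-infrared secondary antibodies on fixed, permeabilised NCI-H358 cells, expressed relative to DMSO control. Compound exposure was 3 h at 0.5% DMSO. IC50 values come from 4-parameter curve fits.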
KRas G12C, sequence (P01116 1-188 isoform P01116-2 G12C): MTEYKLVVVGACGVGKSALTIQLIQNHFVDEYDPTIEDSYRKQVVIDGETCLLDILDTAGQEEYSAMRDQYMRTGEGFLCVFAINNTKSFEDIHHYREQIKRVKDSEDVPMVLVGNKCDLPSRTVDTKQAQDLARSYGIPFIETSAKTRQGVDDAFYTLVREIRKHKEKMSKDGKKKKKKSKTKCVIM
By IC50 is commonly meant the midpoint of a concentration-inhibition curve. For `C=CC(=O)N1CCN(c2nc(OCCCN3CCCOCC3)nc3c2CCN(c2cc(O)cc4ccccc24)C3)CC1` [Example 101, 1-(4-(2-(3-(1,4-oxazepan-4-yl)propoxy)-7-(3-hydroxynaphthalen-1-yl)-5,6,7,8-tetrahydropyrido[3,4-d]pyrimidin-4-yl)piperazin-1-yl)prop-2-en-1-one], the IC50 is 0.1 to 1000 nM.

Turning to `C=CC(=O)N1CCN(c2nc(OC[C@@H]3CCN(C)C3)nc3c2CCN(c2ccccc2C(F)(F)F)C3)CC1CC#N` (stereo partly drawn) [Example 298, 2-(1-acryloyl-4-(2-(((R)-1-methylpyrrolidin-3-yl)methoxy)-7-(2-(trifluoromethyl)phenyl)-5,6,7,8-tetrahydropyrido[3,4-d]pyrimidin-4-yl)piperazin-2-yl)acetonitrile], the IC50 was in the range of 0.1 to 1000 nM.

As to `C=CC(=O)N1CCN(c2nc(OC[C@@H]3CCCN3C)nc3c2CCN(c2ncccc2C(F)(F)F)C3)CC1CC#N` (stereo partly shown) [Example 241], the IC50 is over 1000 nM.

Consider `C=CC(=O)N1CCN(c2nc(OCC3CN(C)CCO3)nc3c2CCN(c2cc(O)cc4ccccc24)C3)CC1` (stereo not shown) [Example 193, 1-(4-(7-(3-hydroxynaphthalen-1-yl)-2-((4-methylmorpholin-2-yl)methoxy)-5,6,7,8-tetrahydropyrido[3,4-d]pyrimidin-4-yl)piperazin-1-yl)prop-2-en-1-one], for which the IC50 was in the range of 0.1 to 1000 nM.

As for `Cc1cccc2cccc(N3CCc4c(nc(OC[C@@H]5CCCN5C)nc4N4CCN(C(=O)/C=C/c5ccccn5)[C@@H](CC#N)C4)C3)c12` [Example 493, 2-((S)-4-(7-(8-methylnaphthalen-1-yl)-2-(((S)-1-methylpyrrolidin-2-yl)methoxy)-5,6,7,8-tetrahydropyrido[3,4-d]pyrimidin-4-yl)-1-((E)-3-(pyridin-2-yl)acryloyl)piperazin-2-yl)acetonitrile], the IC50 fell in the range of 0.1 to 1000 nM.

With `C=CC(=O)N1CCN(c2nc(OCCCN3CCOCC3)nc3c2CCN(c2cc(O)ccc2SC(F)(F)F)C3)CC1` [Example 214, 1-(4-(7-(5-hydroxy-2-((trifluoromethyl)thio)phenyl)-2-(3-morpholinopropoxy)-5,6,7,8-tetrahydropyrido[3,4-d]pyrimidin-4-yl)piperazin-1-yl)prop-2-en-1-one], the IC50 is over 1000 nM.

Consider `C=CC(=O)N1CCN(c2nc(OC[C@@H]3CC(F)(F)CN3C)nc3c2CCN(c2cccc4ccccc24)C3)C[C@@H]1CC#N` [Example 447, 2-((S)-1-Acryloyl-4-(2-(((S)-4,4-difluoro-1-methylpyrrolidin-2-yl)methoxy)-7-(naphthalen-1-yl)-5,6,7,8-tetrahydropyrido[3,4-d]pyrimidin-4-yl)piperazin-2-yl)acetonitrile], for which the IC50 fell in the range of 0.1 to 1000 nM.

Turning to `C=CC(=O)N1CCN(c2ncnc3c2CCN(c2cc(O)cc4ccccc24)C3)CC1` [Example 1, 1-(4-(7-(3-hydroxynaphthalen-1-yl)-5,6,7,8-tetrahydropyrido[3,4-d]pyrimidin-4-yl)piperazin-1-yl)prop-2-en-1-one], the IC50 was over 1000 nM.

For `C=C(F)C(=O)N1CCN(c2nc(OCc3ccccn3)nc3c2CCN(c2cccc4cccc(C)c24)C3)C[C@@H]1CC#N` [Example 605, 2-[(2S)-1-(2-fluoroprop-2-enoyl)-4-[7-(8-methyl-1-naphthyl)-2-(2-pyridylmethoxy)-6,8-dihydro-5H-pyrido[3,4-d]pyrimidin-4-yl]piperazin-2-yl]acetonitrile], the IC50 is over 1000 nM.

For the compound `C=C(F)C(=O)N1CCN(c2nc(OC[C@@H]3[C@H](O)CC(=O)N3C)nc3c2CCN(c2cccc4cccc(C)c24)C3)C[C@@H]1CC#N` [Example 570, 2-[(2S)-1-(2-Fluoroprop-2-enoyl)-4-[2-[[(2R,3R)-3-hydroxy-1-methyl-5-oxo-pyrrolidin-2-yl]methoxy]-7-(8-methyl-1-naphthyl)-6,8-dihydro-5H-pyrido[3,4-d]pyrimidin-4-yl]piperazin-2-yl]acetonitrile], the IC50 was over 1000 nM.

`C=CC(=O)N1CCN(c2nc(OCCCN3CCCC3)nc3c2CCN(c2cc(O)cc4ccccc24)C3)CC1` [Example 39, 1-(4-(7-(3-hydroxynaphthalen-1-yl)-2-(3-(pyrrolidin-1-yl)propoxy)-5,6,7,8-tetrahydropyrido[3,4-d]pyrimidin-4-yl)piperazin-1-yl)prop-2-en-1-one]: the IC50 was in the range of 0.1 to 1000 nM.

With `C=CC(=O)N1CCN(c2nc(OC[C@H]3CN(C)C(C)(C)CO3)nc3c2CCN(c2cccc4ccccc24)C3)C[C@@H]1CC#N` [Example 452, 2-((S)-1-Acryloyl-4-(7-(naphthalen-1-yl)-2-(((R)-4,5,5-trimethylmorpholin-2-yl)methoxy)-5,6,7,8-tetrahydropyrido[3,4-d]pyrimidin-4-yl)piperazin-2-yl)acetonitrile], the IC50 lay in the range of 0.1 to 1000 nM.

Regarding `C=CC(=O)N1CCN(c2nc(OC[C@@H]3CCCN3CC(=O)N(C)C)nc3c2CCN(c2cccc4ccccc24)C3)C[C@@H]1CC#N` [Example 402, 2-((S)-2-(((4-((S)-4-acryloyl-3-(cyanomethyl)piperazin-1-yl)-7-(naphthalen-1-yl)-5,6,7,8-tetrahydropyrido[3,4-d]pyrimidin-2-yl)oxy)methyl)pyrrolidin-1-yl)-N,N-dimethylacetamide], the IC50 was 0.1 to 1000 nM.

With `C=CC(=O)N1CCN(c2nc(OCC3CCN(Cc4ccccc4)C3)nc3c2CCN(c2cc(O)cc4ccccc24)C3)CC1` (stereo not shown) [Example 189, 1-(4-(2-((1-benzylpyrrolidin-3-yl)methoxy)-7-(3-hydroxynaphthalen-1-yl)-5,6,7,8-tetrahydropyrido[3,4-d]pyrimidin-4-yl)piperazin-1-yl)prop-2-en-1-one], the IC50 was over 1000 nM.

On to `C=CC(=O)N1CCN(c2nc(OCCCN3CCOCC3)nc3c2CCN(c2cc(O)cc(C4CC4)c2)C3)CC1` [Example 41, 1-(4-(7-(3-cyclopropyl-5-hydroxyphenyl)-2-(3-morpholinopropoxy)-5,6,7,8-tetrahydropyrido[3,4-d]pyrimidin-4-yl)piperazin-1-yl)prop-2-en-1-one trifluoroacetate], for which the IC50 was over 1000 nM.

Take `C=CC(=O)N1CCN(c2ncnc3c2CCN(c2c(C)ccc4[nH]ncc24)C3)CC1` [Example 7, 1-(4-(7-(5-methyl-1H-indazol-4-yl)-5,6,7,8-tetrahydropyrido[3,4-d]pyrimidin-4-yl)piperazin-1-yl)prop-2-en-1-one]: the IC50 was over 1000 nM.

`C=CC(=O)N1CCN(c2nc(OC[C@@H]3CCCN3CC(=O)N(C)C)nc3c2CCN(c2cccc4ccccc24)C3)CC1CC#N` (stereo partly drawn) [Example 398, 2-((2S)-2-(((4-(4-acryloyl-3-(cyanomethyl)piperazin-1-yl)-7-(naphthalen-1-yl)-5,6,7,8-tetrahydropyrido[3,4-d]pyrimidin-2-yl)oxy)methyl)pyrrolidin-1-yl)-N,N-dimethylacetamide]: the IC50 was in the range of 0.1 to 1000 nM.

Regarding `CC#CC(=O)N1CCN(c2nc(OC[C@@H]3CCCN3C)nc3c2CCN(c2cccc4ccccc24)C3)CC1CC#N` (stereo partly drawn) [Example 376, 2-(1-(but-2-ynoyl)-4-(2-(((S)-1-methylpyrrolidin-2-yl)methoxy)-7-(naphthalen-1-yl)-5,6,7,8-tetrahydropyrido[3,4-d]pyrimidin-4-yl)piperazin-2-yl)acetonitrile 2,2,2-trifluoroacetate], the IC50 fell in the range of 0.1 to 1000 nM.

Regarding `C=CC(=O)N1CCN(c2nc(OC[C@@]3(C)CCCN3C)nc3c2CCN(c2cccc(F)c2C(F)(F)F)C3)CC1CC#N` (stereo partly drawn) [Example 418, 2-(1-acryloyl-4-(2-(((R)-1,2-dimethylpyrrolidin-2-yl)methoxy)-7-(3-fluoro-2-(trifluoromethyl)phenyl)-5,6,7,8-tetrahydropyrido[3,4-d]pyrimidin-4-yl)piperazin-2-yl)acetonitrile], the IC50 was 0.1 to 1000 nM.

Take `C=CC(=O)N1CCN(c2nc(OC[C@@H]3CCCN3C)nc3c2CCN(c2cccc(Cl)c2C(F)(F)F)C3)CC1CC#N` (stereo partly drawn) [Example 277, 2-(1-acryloyl-4-(7-(3-chloro-2-(trifluoromethyl)phenyl)-2-(((S)-1-methylpyrrolidin-2-yl)methoxy)-5,6,7,8-tetrahydropyrido [3,4-d]pyrimidin-4-yl)piperazin-2-yl)acetonitrile]: the IC50 lay in the range of 0.1 to 1000 nM.

In the case of `C=CC(=O)N1CCN(c2nc(OC3CCN(C4CC4)CC3)nc3c2CCN(c2cc(O)cc4ccccc24)C3)CC1` [Example 100, 1-(4-(2-((1-cyclopropylpiperidin-4-yl)oxy)-7-(3-hydroxynaphthalen-1-yl)-5,6,7,8-tetrahydropyrido[3,4-d]pyrimidin-4-yl)piperazin-1-yl)prop-2-en-1-one], the IC50 is over 1000 nM.

On to `C=CC(=O)N1CCN(c2nc(OCCN3CCC(F)C3)nc3c2CCN(c2cc(O)cc4ccccc24)C3)CC1` (stereo not shown) [Example 49, 1-(4-(2-(2-(3-fluoropyrrolidin-1-yl)ethoxy)-7-(3-hydroxynaphthalen-1-yl)-5,6,7,8-tetrahydropyrido[3,4-d]pyrimidin-4-yl)piperazin-1-yl)prop-2-en-1-one], for which the IC50 was over 1000 nM.

With `Cc1cc2[nH]ncc2c(N2CCc3c(nc(OC[C@@H]4CC(F)(F)CN4C)nc3N3CCN(C(=O)/C=C/CF)[C@@H](CC#N)C3)C2)c1C` [Example 614, 2-((S)-4-(2-(((S)-4,4-difluoro-1-methylpyrrolidin-2-yl)methoxy)-7-(5,6-dimethyl-1H-indazol-4-yl)-5,6,7,8-tetrahydropyrido[3,4-d]pyrimidin-4-yl)-1-((E)-4-fluorobut-2-enoyl)piperazin-2-yl)acetonitrile], the IC50 fell in the range of 0.1 to 1000 nM.

Consider `C=CC(=O)N1CCN(c2nc(OC[C@@H]3CCCN3C)nc3c2CCN(c2cnccc2OC)C3)C[C@@H]1CC#N` [Example 340, 2-((S)-1-acryloyl-4-(7-(4-methoxypyridin-3-yl)-2-(((S)-1-methylpyrrolidin-2-yl)methoxy)-5,6,7,8-tetrahydropyrido[3,4-d]pyrimidin-4-yl)piperazin-2-yl)acetonitrile], for which the IC50 is over 1000 nM.

As for `C=CC(=O)N1CCN(c2nc(OC[C@@H]3CCCN3CCO)nc3c2CCN(c2cccc4ccccc24)C3)C[C@@H]1CC#N` [Example 341, 2-((S)-1-acryloyl-4-(2-(((S)-1-(2-hydroxyethyl)pyrrolidin-2-yl)methoxy)-7-(naphthalen-1-yl)-5,6,7,8-tetrahydropyrido[3,4-d]pyrimidin-4-yl)piperazin-2-yl)acetonitrile], the IC50 lay in the range of 0.1 to 1000 nM.
